This passage reports TGI results from PubChem BioAssay (NCI).

Common to all, as to experiment: inhibition of tumour cell growth, NCI panel, 48 h
The subject of assay [1] is MALME-3M melanoma.
Assay [2] deals with DU-145 prostate.
Assay [3] concerns RXF 393 renal.
For assay [4], the system named is SN12C renal.
The subject of assay [5] is EKVX NSCLC.
Assay [6] concerns OVCAR-3 ovarian.
Assay [7] deals with SW-620 colon.
Assay [8] deals with A498 renal.
For assay [9], the system named is NCI-H226 lung.
Assay [10] concerns HOP-62 NSCLC.

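Five compound concentrations were applied to cells in 96-well plates for 48 hours; endpoints were derived by simple linear interpolation of the resulting dose-response curve. TGI: concentration producing complete growth inhibition.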

Turning to `CC1(c2cccs2)CC(c2cccs2)=C(C#N)C(=C(C#N)C#N)N1` (stereo not given), the TGI in assay [1] stood at 35 µM; in assay [2], 28.9 µM; in [3], 38.7 µM; in [4] it was 35.6 µM; in assay [5] it was 33.6 µM; in assay [6], 32.1 µM. For the same molecule, the TGI came out at 43.7 µM in assay [7], 35.8 µM in assay [8], 90 µM in assay [9] and 39.7 µM in assay [10].

For the molecule `COc1cc(/C=C2\C[C@H]3[C@@H]4CCc5cc(O)ccc5[C@H]4CC[C@]3(C)C2=O)cc(OC)c1OC`, the TGI was determined as 13.4 µM in [1]; 17.5 µM in assay [2]; 24.1 µM in assay [3]; 39.5 µM in assay [4]; 23.7 µM in assay [5]; 26.9 µM in assay [6]. Further, the TGI in assay [7] was found to be 34.1 µM; in assay [8] it was 87.5 µM; in [9], 32 µM; in [10], 27.9 µM.

With `O=c1cnn(C/C=C/CBr)c(=O)[nH]1`, the TGI in assay [1] is 32 µM; in [2] it was 43.8 µM; in [3], 31.9 µM; in assay [4], 41.6 µM; in [5], 39.2 µM; in assay [6], 64.2 µM. The TGI in [7] amounted to 28.8 µM; in assay [8] it was 31.7 µM; in assay [9], 34.8 µM; in assay [10], 33.2 µM.

Consider `CN(Cc1cnc2nc(N)nc(N)c2n1)c1ccc(C(=O)NC(CCC(=O)NCCC(P(=O)(O)O)P(=O)(O)O)C(=O)O)cc1` (stereo not given), for which the TGI in [1], in assay [2], in assay [3], in assay [4], in assay [5] and in [6] was greater than 100 µM throughout. For the same molecule, the TGI in assay [7], in assay [8], in [9] and in assay [10] was greater than 100 µM throughout.

For the molecule `O=C1NC(NNc2ccccc2)=N/C1=C\c1ccccc1O`, the TGI in [1], in assay [2], in assay [3], in assay [4], in [5] and in assay [6] was greater than 100 µM in each case. Moreover, the TGI in [7], in assay [8], in assay [9] and in assay [10] was greater than 100 µM each time.

Turning to `N#Cc1c(-c2ccc(Cl)cc2)c2c([nH]c1=O)-c1ccccc1SC2`, the TGI in [1] was greater than 100 µM; in assay [2], greater than 100 µM; in assay [3], 77.4 µM; in [4] it was greater than 100 µM; in assay [5], 70.8 µM; in [6], 92.7 µM. The TGI in assay [7], in assay [8], in assay [9] and in assay [10] was greater than 100 µM each time.

For the molecule `C=C(CCC/C(C)=C/C=C/[C@]1(C)CCCc2ccoc21)CC(=O)O`, the TGI in assay [1] was greater than 100 µM; in assay [2] it was 98.4 µM; in [3] it was greater than 100 µM; in assay [4], greater than 100 µM; in assay [5], greater than 100 µM; in assay [6], greater than 100 µM. For the same molecule, the TGI in assay [7], in [8], in assay [9] and in [10] was greater than 100 µM throughout.

On to `CC(=O)N(C)c1ccc(Nc2cc(C)[nH]c3ccc4ncnc4c23)cc1`, for which the TGI in assay [1] was 17.5 µM; in assay [2], 22.4 µM; in assay [3], 22.9 µM; in assay [4], 34.9 µM; in assay [5] it was 50.5 µM; in [6], 27.5 µM. For the same molecule, the TGI in assay [7] was 22.1 µM; in assay [8], 25.2 µM; in assay [9], 19.5 µM; in assay [10], 23.5 µM.

Take `O=C1NC(=O)C(c2c[nH]c3ccccc23)=C1c1cnc[nH]1`: the TGI in [1], in assay [2], in [3], in [4], in assay [5] and in assay [6] was greater than 100 µM each time. Also, the TGI in assay [7] was greater than 100 µM; in assay [8], greater than 100 µM; in assay [9], 9.4 µM; in assay [10], greater than 100 µM.

In the case of `CCOC(=O)C1=C(C)N(Cc2ccc(Cl)cc2Cl)C2(O)C=CC(=O)C3C(=O)N(c4ccccc4)C(=O)C132` (stereo not given), the TGI in assay [1] stood at 8.67 µM; in [2], 2.97 µM; in [3] it was 2.87 µM; in assay [4] it was 4.93 µM; in assay [5] it was 4.35 µM; in [6], 3.44 µM. For the same molecule, the TGI amounted to 5.97 µM in assay [7], 16.9 µM in assay [8], 3.09 µM in assay [9] and 29.5 µM in assay [10].

`COc1ccccc1/C(=N\OCCC(=O)O)c1cccs1`: the TGI in assay [1], in assay [2], in [3], in assay [4], in assay [5] and in [6] was greater than 100 µM in each case. In addition, the TGI in [7], in assay [8], in [9] and in assay [10] was greater than 100 µM each time.

For `CCOC(=O)c1c(NC(=O)c2cccs2)sc2c1CCCC2`, the TGI was greater than 74.5 µM in [1]; greater than 100 µM in assay [2]; 30.8 µM in assay [3]; greater than 100 µM in assay [4]; greater than 100 µM in [5]; greater than 100 µM in assay [6]. Moreover, the TGI in assay [7] is greater than 100 µM; in assay [8], greater than 96.3 µM; in assay [9] it was greater than 100 µM; in [10], 55.3 µM.

On to `CCCCc1c(N(C)C)c(OC(C)=O)c(-c2cn(C)c3ccccc23)oc1=O`, for which the TGI in assay [1] is 62.3 µM; in [2], greater than 100 µM; in assay [3], greater than 100 µM; in assay [4], 59.8 µM; in assay [5] it was greater than 100 µM; in assay [6], 67.9 µM. The TGI in [7] was greater than 100 µM; in assay [8], 81.4 µM; in [9], 36.8 µM; in assay [10], 55.7 µM.

In the case of `Nc1c2c(nc3cc(F)c(F)cc13)CCC2`, the TGI in [1], in assay [2], in assay [3], in assay [4], in [5] and in [6] was greater than 100 µM each time. In addition, the TGI in [7] is greater than 100 µM; in [8], 61.2 µM; in [9] it was greater than 100 µM; in assay [10], greater than 100 µM.

Take `O=C(O)CC1NC(/C(=C/c2ccccc2)NC(=O)c2ccccc2)OC1=O` (stereo not given): the TGI in assay [1] is greater than 100 µM; in [2], greater than 100 µM; in assay [3], greater than 100 µM; in assay [4], greater than 100 µM; in [5] it was greater than 100 µM; in assay [6], 51.2 µM. In addition, the TGI in assay [7] was 42 µM; in assay [8], greater than 100 µM; in assay [9], 98.6 µM; in assay [10], 37.2 µM.

Take `O=C(NC(Cc1c[nH]c2ccccc12)C(=O)Nc1ccc(Br)cc1)OCc1ccccc1` (stereo not given): the TGI in [1] came out at 34.1 µM; in assay [2], 29.2 µM; in assay [3], 22.2 µM; in assay [4], 22.5 µM; in assay [5], 22.3 µM; in assay [6], 36.6 µM. The TGI in assay [7] was 54.6 µM; in assay [8] it was 23.7 µM; in [9] it was 31.4 µM; in assay [10] it was 23.7 µM.

Consider `COC(=O)C1=C(C)NC2=C(C(=O)c3ccccc32)C1c1cn(-c2ccccc2)nc1-c1ccccc1` (stereo not given), for which the TGI in assay [1], in [2], in assay [3], in assay [4], in assay [5] and in assay [6] was greater than 100 µM each time. Moreover, the TGI in assay [7], in [8], in assay [9] and in assay [10] was greater than 100 µM each time.

For the molecule `O=Cc1cn(CCCCCCCCCCCCn2cc(C=O)c3ccccc32)c2ccccc12`, the TGI in [1], in [2], in assay [3], in [4], in [5] and in assay [6] was greater than 100 µM throughout. Besides, the TGI in assay [7], in assay [8], in [9] and in assay [10] was greater than 100 µM in each case.

Regarding `OC1(C(F)(F)F)OCCN=C1C(F)(F)F` (stereo not given), the TGI is 76.4 µM in [1]; greater than 100 µM in assay [2]; greater than 100 µM in assay [3]; greater than 100 µM in assay [4]; greater than 100 µM in [5]; greater than 100 µM in [6]. The TGI in [7], in assay [8], in assay [9] and in assay [10] was greater than 100 µM throughout.

With `CCN(CC)CCC(=O)/C=C/c1ccccc1`, the TGI in [1] is 33.1 µM; in assay [2] it was greater than 73.9 µM; in [3] it was 21.5 µM; in assay [4], 38.6 µM; in assay [5], 22.6 µM; in [6] it was 12.1 µM. For the same molecule, the TGI in assay [7] was 23.4 µM; in assay [8], greater than 60.6 µM; in assay [9], 44.9 µM; in assay [10], 54.5 µM.

Take `Cc1cc(C)nc(NC(=O)c2ccc(Br)s2)c1`: the TGI in assay [1], in [2], in assay [3], in assay [4], in assay [5] and in [6] was greater than 100 µM throughout. Also, the TGI in assay [7], in [8], in [9] and in assay [10] was greater than 100 µM throughout.

Consider `CC(C)(C)OC(=O)N1CCc2[nH][nH]c(=O)c2C1`, for which the TGI in [1], in assay [2], in [3], in assay [4], in [5] and in assay [6] was greater than 100 µM each time. For the same molecule, the TGI in assay [7], in assay [8], in assay [9] and in [10] was greater than 100 µM in each case.

Regarding `CC1=CC(C)C/C=C/C2C3OC3(C)C(C)C3C(Cc4c[nH]c5ccccc45)NC(=O)C23C(=O)C=CC(=O)C1O` (stereo not given), the TGI in assay [1] is 4.19 µM; in assay [2], 27.6 µM; in [3], 2.94 µM; in [4] it was 30.7 µM; in [5], 14.7 µM; in assay [6], 12.1 µM. In addition, the TGI in assay [7] was determined as 25.9 µM; in assay [8], 0.935 µM; in assay [9], 32 µM; in [10], 26.7 µM.
